Experimental data: patent US6537670B1, “Bis(alkyleneoxybenzophenone) ultraviolet light absorbers” (Cytec Technology Corp., priority 2000, dated 2003)

Tests used:
[1] = Volatility of UV absorbers: Thermogravimetric Analysis (TGA) T-10% values; assay type: physicochemical; conditions: for T-10% (TGA, temperature required for 10% of the material to volatilize): Thermogravimetric Analysis
Text: One approach that has been taken to reduce the loss of absorbers from polymeric substrates has been to increase their molecular weight, either by using an absorber with attached high molecular weight groups, or by adding a group which will bind two or more absorbing nuclei in the same molecule, thus increasing molecular weight. U.S. Pat. No. 4,278,589 provides an example of the former approach, and describes benzotriazoles with large groups attached at the 3- and 5-positions. Of the latter approach, benzophenones, benzotriazoles and other molecules have been dimerized to reduce volatility. U.S. Pat. Nos. 5,108,835 and 4,948,666 describe articles with capstock layers stabilized by 2-hydroxyphenylbenzotriazoles which are bridged by various groups. One structure encompassed by the description is a 2-hydroxyphenylbenzotriazole bridged by a methylene group in the 3-position. These materials have relatively low volatility, as measured by the high temperature required for 10% of the materials to volatilize during Thermogravimetric Analysis. This temperature, known as the TGA T-10% value, is approximately 365° C. for the methylenebis{(5-tert-octyl-2-hydroxyphenyl)benzotriazole} known commercially as LA-31, Mixxim BB-100 or Tinuvin 360 (supplied by Asahi Denka, Fairmount Chemical and Ciba Specialty Chemicals, respectively), versus a TGA T-10% value of 245° C. for the non-dimerized (5-tert-octyl-2-hydroxyphenyl)benzotriazole known commercially as CYASORB® UV-5411. Also described have been 2,4-dihydroxybenzophenones which are dimerized by attachment through the 4-oxygen by an ether bond to two carbons of an aliphatic group. Compounds of this type have been described in U.S. Pat. Nos. 3,580,927 and 3,666,713 and CZ Appl. 135,115, JP Sho 47-48888, JP Sho 44-26456 and GB 1, 296,240. Capstock articles stabilized by some of these compounds, and a method for preparing the same are described in U.S. Pat. Nos. 5,445,872 and 5,306,456. Descriptions of benzotriazoles and benzophenones bridged by attachment of other groups may be found in U.S. Pat. Nos. 5,589,529 and 4,859,726 (for benzotriazoles) and JP Sho 57-12643 (for benzophenones). Many of the compounds described above, while solving the problem of volatility, have other limitations, including low solubility and high initial color when processed into the plastic substrate.
Volatility of UV Absorbers
Thermogravimetric Analysis (TGA) T-10% Values

[2] = Weathering resistance of polycarbonate plaques, 12-Month Florida Data; conditions: for % Weathering Resistance: 0.35% additive in Lexan 121 PC, 12-Month Florida Data, [1-YI(additive)YI of Blank] × 100
Protocol: The performance of the additives was evaluated in comparison to the control (no stabilizer) by compounding into polycarbonate and studying the properties of the compounded plaques. Polycarbonate plaques were prepared by: (1) dry blending the additives at 0.35 weight % with GE Lexan 121-112 polycarbonate (2) extruding the blend in a Haake torque rheometer base using a 0.75 inch 25:1 single screw extruder −4 zone, single pass, at 50-65 RPM speed, with zone 1, zone 2, zone 3, and zone 4 temperatures at 265, 265, 270 and 275° C., respectively, (3) pulling through a water bath, (4) drying, (5) pelletizing, (6) redrying at 120° C. for 4-48 hours in a forced air oven, (7) injection molding in an Arburg ‘Allrounder’ hydraulic injection molder (2×2.5 0.100″ plaques). Temperatures used were as follows: nozzle, 275° C., nozzle side, 280° C., middle, 275° C., feed, 266° C., mold, 95° C. The plaques were irradiated in a Xenon Arc Weatherometer as described by ASTM G-26 Standard using Test Method B with alternate exposure to light and darkness and an intermittent exposure to water spray maintaining an atmosphere temperature of 63±3° C. and a relative humidity of 30±5% (Miami, Fla. conditions). Color (YI) was determined with a Macbeth Color Eye […] under Lab conditions with illuminate C, 2° observer, specular component excluded, and UV component included. Hydrolytic testing was performed by heating plaques with water at 120° C. for 6 hours in an All American Electric Pressure Sterilizer, Model No. 25×, measuring YI before and after treatment.
% Weathering Resistance of Plaques (0.35% Additive in Lexan® 121 PC)

[3] = Solubility of compounds in organic solvents; conditions: 25° C.
[4] = Capstock weathering: Delta YI after xenon-arc weatherometer exposure; conditions: 7% in Capstock PC-Lexan 105
Protocol: The performance of the compounds was evaluated in comparison to the control (no stabilizer) in a polycarbonate thin film laminated to an unstabilized polycarbonate plaque. The films were prepared by (1) dry blending the additives at 7 wt. % with Lexan 105 virgin flake and 0.1% Mark 2112 phosphite, (2) extruding the blend in a Haake torque rheometer base equipped with a 0.75 inch 25:1 single mixing screw extruder −4 zone, single pass at 55-65 rpm speed, with zone 1, zone 2, zone 3, and zone 4 temperatures at 246, 265, 295, and 304° C., respectively, (3) pulling through a water bath, (4) drying, (5) pelletizing, (6) redrying at 120° C. for 4-48 hours in a forced air oven, and (7) compression molding from compounded pellets into 2 mil films at 300° C. using a 30 second dwell hold without pressure, and a 30-second dwell hold with 35 kpsi pressure. […] The laminated sample plaques were exposed in the xenon-arc weatherometer as determined by ASTM G-26 Standard using Test Method B with alternate exposure to light and darkness and an intermittent exposure to water spray maintaining an atmosphere temperature of 63±3° C. and a relative humidity of 30±5% (Miami, Fla. conditions). Color (YI) was determined with a Macbeth Color Eye Colorimeter under Lab conditions with illuminate C, 2° observer, specular component excluded, and UV component included. […]

TGA T-10% value [1] | T-10% (TGA, temperature required for 10% of the material to volatilize) [1] | Solubility in 2-Butanone [3] | Solubility in Toluene [3] | Solubility characteristics (in words) ([3]; organic solvents) | Stability imparted (in words) [4] | Stability imparted to the polycarbonate system (in words) ([2]; 0.35% in Lexan 121 PC) | Compound | % Weathering Resistance [2] | Volatility (in words) ([1]; TGA, compared with non-dimerized counterpart)
245 °C | 245 °C | – | – | – | – | – | CC(C)(C)CC(C)(C)c1ccc(O)c(-n2nc3ccccc3n2)c1 [Compound A, 2-(2′-hydroxy-5′-(1,1,3,3-tetramethylbutyl)phenyl)benzotriazole] | – | –
– | 257 °C | – | – | – | – | – | O=C(c1ccccc1)c1ccc(OCCO)cc1O [Compound B, 2-hydroxy-4-(hydroxyethoxy)benzophenone] | – | –
– | 350 °C | 2.69 g/100 g solvent | 1.26 g/100 g solvent | excellent solubility characteristics | excellent stability | excellent stability | O=C(OCCOc1ccc(C(=O)c2ccccc2)c(O)c1)OCCOc1ccc(C(=O)c2ccccc2)c(O)c1 [Compound D, {2-(3′-hydroxy-4′-benzoylphenoxy)ethyl}carbonate] | 71% | lower volatility than its non-dimerized counterpart
– | 357 °C | 0.37 g/100 g solvent | 0.52 g/100 g solvent | – | – | – | O=C(c1ccccc1)c1ccc(OCCCCCCOc2ccc(C(=O)c3ccccc3)c(O)c2)cc1O [Compound E, 1,6-bis(3′hydroxy-4′-benzoylphenoxy)hexane] | 69% | –
approximately 365 °C | – | – | – | – | – | – | CC(C)(C)CC(C)(C)c1cc(Cc2cc(C(C)(C)CC(C)(C)C)cc(-n3nc4ccccc4n3)c2O)c(O)c(-n2nc3ccccc3n2)c1 [Compound F] | 59% | –

Compound | TGA T-10% value [1] | T-10% (TGA, temperature required for 10% of the material to volatilize) [1] | Solubility in 2-Butanone [3] | Solubility in Toluene [3] | Solubility characteristics (in words) ([3]; organic solvents) | Stability imparted (in words) [4] | Stability imparted to the polycarbonate system (in words) ([2]; 0.35% in Lexan 121 PC) | % Weathering Resistance [2] | Volatility (in words) ([1]; TGA, compared with non-dimerized counterpart)
CC(C)(c1ccccc1)c1cc(-n2nc3ccccc3n2)c(O)c(C(C)(C)c2ccccc2)c1 [Compound C, 2-(3′,5′-bis(α,α-dimethylbenzyl)-2′hydroxyphenyl)benzotriazole] | – | 312 °C | – | – | – | – | – | 71% | –
